Data set [1] concerns PC-3 human prostatic adenocarcinoma xenograft in NOD-SCID mice. Kind of data set: In vivo tumour growth inhibition, subcutaneous PC-3 xenograft. Set-up: species or system mouse. As to conditions: free drug 1 mg/kg, two treatments, n = 8. The method, then: The testing of the antitumour conjugates was carried out in a murine xenograft model. It was established by inoculating subcutaneously 100 µL of cell suspension of PC-3 prostate cancer cells with a concentration of 2 × 10^7 cells/mL.
Once the tumour volume reached 60 mm^3, mice were randomised and assigned to different groups for each treatment, respectively 0.9% saline as control, free daunorubicin, L5, and L6. Each group consisted of eight mice. Peptide–drug conjugates were injected intraperitoneally every 5th day, five times in total (daunorubicin dosage of 10 mg/kg for each treatment). In the case of free daunorubicin, two treatments were administered at the same time points as the first two treatments with conjugates, with a dosage of 1 mg/kg, the maximum tolerated dose (MTD). Weight and tumour size of mice were monitored throughout the whole experiment, two times per week. On day 33, mice were euthanized, and primary tumour, heart, lung, liver and spleen were harvested and stored in 4% formalin (Molar Chemicals, Halásztelek, Hungary). After 2–3 days of incubation in formalin, tissue samples were examined macroscopically. Organs and primary tumours from the different treatment groups were weighed and inspected under a stereomicroscope to see any occurrent changes in morphology compared to the controls.

Another data set relates to MRC-5 human fibroblasts. As to the kind of experiment: Toxicity on non-cancerous cells (dose-response curves). In kind it is cell-based. As to conditions: Figure S15. An excerpt: The lack of toxicity of the conjugates on healthy cells was checked on MRC-5 human fibroblasts, proving that they are non-toxic on non-cancerous cells (see Supplementary Materials, Figure S15).
Figure S15. Dose-response curves of the PDCs and Dau on MRC-5 human fibroblast cell line. Only […]
Figure S16. Flow cytometry measurements for the uptake of all the PDCs on MDA-MB-231 (A), MDA-MB-453 (B) and PC-3 (C) human cancer cell lines. The percentage of cells containing the Dau-conjugates was evaluated on four concentrations (%, mean ± SD, n= 2). Given that above 12.5 µM the internalisation may not only be receptor-mediated, this concentration was considered to com-pare the uptake of the bioconjugates. […]

In a further data set the test system is mice. Particulars: mouse experimental model; cited from earlier work. How it is done:
Before testing the effect of our newly developed PDCs on tumour growth in vivo, we performed a chronic toxicity study to determine the ideal dosage of the compounds. Administration of daunorubicin is shown to cause severe cardiotoxic side effects, therefore, its maximum tolerated dose is 1 mg/kg in the case of our experimental model. However, when conjugated to targeting moieties, its side effects can be reduced; moreover, its tumour inhibition capabilities can be increased.

Data set [2] deals with MDA-MB-231 human breast adenocarcinoma cells. As to the kind of experiment: MTT assay, in vitro cytostatic effect. In kind it is cell-based. As to conditions: Homo sapiens, MDA-MB-231, 24 h treatment at 3.125–25 µM, then cultured up to 72 h, mean ± SD, n = 2 independent experiments with four parallels. The method, then: (§1) Cells were distributed into 96-well tissue culture plates with an initial cell number of 5.0 × 10^3 per well. After 24 h incubation at 37 °C, the cells were treated with the compounds in 200 µL final volume containing 1.0 v/v% DMSO and 10% H2O. […] After incubation, the cells were washed twice with a serum-free medium. To determine the in vitro cytostatic effect, the cells were further cultured up to 72 h in a 10% serum-containing medium. A solution of 3-(4,5-dimethylthiazol-2-yl)-2,5-diphenyltetrazolium bromide and MTT-solution, (45 µL, 2 mg/mL, final concentration: […]) were added to each well. The respiratory chain [67] and other electron transport systems reduce MTT, and thereby form non-water-soluble violet formazan crystals within the cell. […] After 3 h of incubation, the cells were centrifuged for 5 min at 1000 g and the supernatant was removed. The obtained formazan crystals were dissolved in DMSO (100 μL) and the optical density (OD) of the samples was measured at λ = 540 and 620 nm, respectively, using ELISA Reader (iEMS Reader, Labsystems, Finland). OD620 values were subtracted from OD540 values. The percentage of cytostasis was calculated by using the following equation:Cytostatic effect (%) = [1 − (ODtreated/ODcontrol)] × 100(1)
(§2) Values of ODtreated and ODcontrol correspond to the optical densities of the treated and the control cells, respectively. In each case, two independent experiments were carried out with four parallel measurements. The 50% inhibitory concentration (IC50) values were determined from the dose–response curves. The curves were defined using Microcal™ Origin 2018 software: cytostasis was plotted as a function of concentration, fitted to a sigmoidal curve, and based on this curve, the half-maximal inhibitory concentration (IC50) value was determined. IC50 represents the concentration of a compound that is required for 50% inhibition in vitro and is expressed in micromolar units.

Data set [3] has as its system PC-3 human prostate adenocarcinoma cells. As to the kind of experiment: MTT assay, in vitro cytostatic effect. Particulars: Homo sapiens, 24 h treatment at 3.125–25 µM, then cultured up to 72 h, mean ± SD, n = 2 independent experiments with four parallels. In kind it is cell-based. The method, then: as §1, §2
A general note: Formazan colour is commonly taken as a measure of viable cells.

For data set [4], the system named is MDA-MB-453 human metastatic epithelial breast carcinoma cells. As to the kind of experiment: MTT assay, in vitro cytostatic effect. In kind it is cell-based. As to conditions: Homo sapiens, MDA-MB-453, 24 h treatment at 3.125–25 µM, then cultured up to 72 h, mean ± SD, n = 2 independent experiments with four parallels. How it is done:
as §1, §2

The IC50 is the concentration at which inhibition is half-maximal. A high value points to a need for much substance.

The structures appear in SMILES notation.

`COc1cccc2c1C(=O)c1c(O)c3c(c(O)c1C2=O)C[C@@](O)(C(C)=O)C[C@@H]3O[C@H]1C[C@H](N)[C@H](O)[C@H](C)O1` [Dau, daunorubicin, reference compound]: the “Day at which fitness of mice decreased to a critical state” value in data set [1] amounted to 26 days. In addition, in data set [1], the “Effect on tumour growth” value is listed as “did not significantly reduce tumour growth”. The “Toxicity on MRC-5 human fibroblasts” value in the data set on MRC-5 human fibroblasts is on record as “reveals toxicity”. The Maximum tolerated dose in the data set with mice is recorded as 1 mg/kg. Moreover, the IC50 in data set [2] was 900 ± 60 nM; in data set [3], 750 ± 10 nM; in data set [4] it was 810 ± 70 nM.

These data come from publication PMC9967152 (International Journal of Molecular Sciences, 2023).
